Usually pEC50 stands for the EC50 on a negative log10 scale, so that one unit is a factor of ten. Higher therefore signals a small EC50.

pEC50: −log10 of the molar value.

The target of this assay is human 5-HT2C receptor (Homo sapiens, UniProt P28335, I156V/I160V/N158S). The assay is described as follows: cell-based.
Chain of human 5-HT2C receptor (P28335 33-458 I156V/N158S/I160V limits assumed): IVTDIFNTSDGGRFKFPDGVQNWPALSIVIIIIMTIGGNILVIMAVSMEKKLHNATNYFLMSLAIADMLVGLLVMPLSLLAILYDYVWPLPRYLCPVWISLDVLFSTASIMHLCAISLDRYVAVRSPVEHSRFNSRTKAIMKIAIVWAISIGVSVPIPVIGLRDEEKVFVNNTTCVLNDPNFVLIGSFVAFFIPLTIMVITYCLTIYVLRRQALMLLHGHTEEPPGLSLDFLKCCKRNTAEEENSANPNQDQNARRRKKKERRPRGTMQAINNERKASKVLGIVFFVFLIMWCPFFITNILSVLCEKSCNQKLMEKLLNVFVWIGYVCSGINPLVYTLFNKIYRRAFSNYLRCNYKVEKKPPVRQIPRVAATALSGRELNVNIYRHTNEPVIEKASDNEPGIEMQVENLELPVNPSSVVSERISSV
`CN(Cc1c(Cl)cccc1Cl)C(=O)C1CN(c2c3c(nc4ccnn24)CCNCC3)C1` [Example 31.160] had a pEC50 of 6.34. For `c1ccc(CCn2c(C3CN(c4c5c(nc6ccnn46)CCNCC5)C3)nc3ccccc32)cc1` [Example 34.36] the value was 6.45; for `CC(C)CCNC(=O)C1CN(c2c3c(nc4ccnn24)CCNCC3)C1` [Example 37.82], 7.48. Molecule `CC(C)CN(Cc1ccc(F)cc1)C(=O)C1CN(c2c3c(nc4ccnn24)CCNCC3)C1` [Example 31.198] gave a pEC50 of 5.74. For `CC(C)C1CCN(C(=O)C2CN(c3c4c(nc5ccnn35)CCN(C)CC4)C2)CC1` [Example 36.20] the value was 7.20; for `CC1CN(C(=O)C2CN(c3c4c(nc5ccnn35)CCN(C)CC4)C2)CCO1` (stereo not drawn) [Example 36.11], 6.86. With `FC(F)(F)Oc1ccc(OC2CN(c3c4c(nc5ccnn35)CCNCC4)C2)cc1` [Example 35.32], the pEC50 is 6.39.

Molecule `c1cnn(CC2CN(c3c4c(nc5ccnn35)CCNCC4)C2)c1` [Example 17, 10-(3-Pyrazol-1-ylmethyl-azetidin-1-yl)-6,7,8,9-tetrahydro-5H-1,4,7,10a-tetraaza-cyclohepta[f]indene] gave a pEC50 of 7.82. For `CC1(C(=O)N2CCC(c3ccccc3F)CC2)CN(c2c3c(nc4ccnn24)CCNCC3)C1` [Example 32.6] the value was 5.56; for `CN1CCc2nc3ccnn3c(N3CC(C(=O)N4CCC5(CCC5)C4)C3)c2CC1` [Example 36.34], 6.05; for `O=C(C1CCCN(c2c3c(nc4ccnn24)CCNCC3)C1)N1CCCCC1` (stereo not drawn) [Example 1.61], 5.33. For `O=C(C1CN(c2c3c(nc4ccnn24)CCNCC3)C1)N1CCCC(c2ccccc2)CC1` (stereo not drawn) [Example 31.152] the value was 7.11.

In turn, `CC(NC(=O)C1CN(c2c3c(nc4ccnn24)CCNCC3)C1)C(C)(C)C` (stereo not drawn) [Example 37.111] had a pEC50 of 6.86.

`CCCC1CCN(C(=O)C2CN(c3c4c(nc5ccnn35)CCNCC4)C2)CC1` [Example 31.69] showed a pEC50 of 7.44.

`CN(CC1CCCCC1)C(=O)C1CN(c2c3c(nc4ccnn24)CCNCC3)C1` [Example 31.100] gave a pEC50 of 6.80. For `O=C(C1CN(c2c3c(nc4ccnn24)CCNCC3)C1)N1CCCC1c1ccccc1` (stereo not drawn) [Example 31.45] the value was 6.24; for `C1=C(c2c3c(nc4ccnn24)CCNCC3)CCNC1` [Example 24, 10-(1,2,3,6-Tetrahydro-pyridin-4-yl)-6,7,8,9-tetrahydro-5H-1,4,7,10a-tetraaza-cyclohepta[f]indene], 6.23; for `Fc1ccc(OCC2CN(c3c4c(nc5ccnn35)CCNCC4)C2)cc1` [Example 15, 10-[3-(4-Fluoro-phenoxymethyl)-azetidin-1-yl]-6,7,8,9-tetrahydro-5H-1,4,7,10a-tetraaza-cyclohepta[f]indene], 7.37.

These data come from patent US20120165304A1, “6,7,8,9-Tetrahydro-5H-1,4,7,10a-tetraaza-cyclohept[f]indene derivatives, pharmaceutical compositions containing these compounds, their use and processes for preparing them” (BOEHRINGER INGELHEIM INTERNATIONAL GMBH, priority 2008, published 2012).
